Assay results taken from patent publication US20080262010A1, “CRYSTALLINE POLYMORPHS OF N-(3-(DIMETHYLAMINO)PROPYL)-4-(4-(3-FLUORO-4-METHOXYPHENYL) PYRIMIDIN-2-YLAMINO) BENZENESULFONAMIDE AS D-GLUCORONATE SALTS” (Wyeth, priority 2007, published 2008).
Counter-ions that a name gives are not always drawn.

What was measured:
[1] = Water solubility of compound 3 free base and its salts; format: physicochemical; details: for solubility in water: free base, thermogravimetric method
Source text: HCl, phosphoric acid, tartaric acid, acetic acid, D-glucoronic acid and succinic acid were used to prepare pharmaceutically acceptable salts of compound 3.
Solid or crystalline forms or polymorphs of compounds having formula I can be achieved in the free base.

[2] = Solubility of the free base of compound 3 in solvents; format: physicochemical
Description: Typically, water solubilities of the compounds in the form of their respective free base, such as compound 3, are low to none. In an exemplary embodiment, the solubility of the free base form of compound 3 in THF, DMSO and DMF was high but the solubility in group 3 solvents, or water for example, was low. For example, acetone is needed to dissolve the free base at 50° C. […] HCl, phosphoric acid, tartaric acid, acetic acid, D-glucoronic acid and succinic acid were used to prepare pharmaceutically acceptable salts of compound 3.

| solubility in water [1] | solubility in water ([1]; listed as free base 3) | solubility in THF, DMSO and DMF ([2]; THF, DMSO and DMF) | solubility in group 3 solvents, or water ([2]; group 3 solvents, or water) | solubility ([1]; salts of compound 3) | water solubility ([1]; salts of compound 3) | Structure (SMILES) |
| --- | --- | --- | --- | --- | --- | --- |
| little to no water solubility | not detectable | high | low |  |  | COc1ccc(-c2ccnc(Nc3ccc(S(=O)(=O)NCCCN(C)C)cc3)n2)cc1F [compound 3, N-(3-(dimethylamino)propyl)-4-(4-(3-fluoro-4-methoxyphenyl)pyrimidin-2-ylamino)benzenesulfonamide] |
|  |  |  |  | 5170 µg/mL | 5700 µg/mL | COc1ccc(-c2ccnc(Nc3ccc(S(=O)(=O)NCCCN(C)C)cc3)n2)cc1F [D-glucoronate salt of compound 3] |
